{"source": "paper PMC13108699", "about": "“Mass balance and metabolite profiling of ^14C-Zalunfiban in humans following single-dose subcutaneous administration” (Xenobiotica; the fate of foreign compounds in biological …, 2025)", "key": {"[1]": {"assay": "Whole blood zalunfiban and M1 concentrations (LC-MS/MS) and non-compartmental PK, phase 1 mass balance study", "format": "in vivo, human", "conditions": "for Cmax / Tmax / AUC(0-inf) / AUC(0-t) / k el / Vd/F / half-life: male, human, whole blood; for AUC(0-inf): read-out: AUC0-inf, whole blood zalunfiban; for AUC(0-t): read-out: AUC0-last, whole blood zalunfiban; for k el: read-out: Kel, whole blood zalunfiban (converted); for Vd/F: read-out: Vz/F, whole blood zalunfiban; for half-life: read-out: t1/2, whole blood zalunfiban (converted)", "description": "This was a Phase 1, single-centre, open-label, non-controlled, mass balance and metabolite profiling study of ^14C-radiolabeled zalunfiban in health male volunteers (NCT04284995). The planned participant enrolment size was 8, with 2 additional alternate participants available on the morning of dosing. Following a 28-day screening period, all eligible participants were admitted to the research unit the evening before dosing. After fasting overnight, participants completed a standard breakfast prior to dosing on study day 1. After dosing, subjects fasted for 4 h. Fluids were permitted ad libitum starting 1-hour after dosing. The investigational product (IP) was injected SC on study day 1 and participants were housed for 11 days, which is past the final 240-hour sampling time, and then discharged following final evaluation. The clinical study was conducted at the Pharmaron Clinical Pharmacology Centre (Baltimore, MD) and the study protocol, consent forms and regulatory documents were reviewed and approved by the Advarra Institutional Review Board (Columbia, MD).\nAll participants received the same fixed mass dose of SC 9.5 mg ^14C-zalunfiban (5 μCi), in 0.5 mL of formulation solution. This zalunfiban dose was chosen to both ensure participant safety and to make certain the study results were clinically relevant. For the latter, by strict inclusion of participants with a body weight within the range of 73–99 kg, the zalunfiban doses were no higher than the highest administered in the currently ongoing Phase 3 study, which includes three groups of 0.110 mg/kg zalunfiban, 0.130 mg/kg zalunfiban, and placebo ([NIH 2025]). The ^14C radiolabel dose of 5 μCi presented minimal radiation risk to healthy subjects while providing a high likelihood of meeting the study objectives.\nSerial blood samples were collected to determine zalunfiban and its major metabolite des-gly-zalunfiban (M1) whole blood concentrations, additional whole blood metabolite profiling, and total whole blood ^14C at pre dose (−60 min); 5, 10, 15, 30 and 45 min; and 1, 1.5, 2, 2.5, 3, 4, 6, 8, 12, 16, 24, 36, 48, 72, 96, 120, 144, 168, 192, 216 and 240 h after dosing. Blood samples were taken via an indwelling IV catheter or by direct venipuncture into designated blood collection tubes, with K2 EDTA used as an anticoagulant. Study samples were diluted immediately after blood collection, at a ratio of 1:4 using prechilled 30% acetonitrile, then separated into storage tubes and immediately frozen at −80°C for shipment to the analytical laboratory. At the laboratory, extraction of ^14C-zalunfiban from whole blood was achieved by repeated microcentrifugation, vortex mixing, and harvesting to collect analytes (see Metabolite profiling and excretion for more details).\nZalunfiban and M1 whole blood concentrations were measured using a validated LC-MS/MS method in compliance with the ICH-M10 guideline. The method utilised a Sciex 5500 mass spectrometer, Shimadzu LC30AD HPLC system, and a Shimadzu AD multiplate autosampler. Mobile phase A (MPA) was 10 mM ammonium acetate with 0.1% ammonium hydroxide and mobile phase B (MPB) was 10 mM ammonium acetate with acetonitrile:ammonium hydroxide. An Acquity UPLC BEH Hilic 1.7 micrometer column (Waters Corporation) was used at a temperature of 50 °C. The column flow rate was 0.4 mL/min and injection volumes were 2.0 microliters. The gradient for analytical pumps was set at 30% MAP and 70% MPB.\nFor whole blood LC-MS/MS the calibration ranges were 5.00–500.00 ng/mL for zalunfiban and 25.00–2500.00 ng/mL for M1. Zalunfiban and M1 sample concentrations below 5 ng/mL and 25 ng/mL, respectively, were reported as below the lower limit of quantification (<LLOQ).\nZalunfiban and whole blood radioactivity concentrations were used to calculate PK parameters using standard non-compartmental analysis (NCA) methods using Phoenix WinNonlin software (Phoenix, Princeton, NJ). […]"}, "platelet aggregation": {"system": "platelet aggregation", "assay": "In vitro inhibition of ADP-induced platelet aggregation in platelet-rich plasma", "format": "cell-based, human", "conditions": "Homo sapiens, Platelet, 20 min; PRP, 20 min at 22°C, ADP-initiated aggregation", "experimental": "Ten mL of whole blood was collected from healthy human donors via venipuncture and treated with an anticoagulant (D-phenylalanyl-prolyl-arginyl chloromethyl ketone). From this, platelet-rich plasma (PRP) was prepared by centrifuging whole blood at room temperature at 650 × g for 4 min. PRP was removed and standardised to a uniform platelet concentration of 3.0 × 10^5/μL, using platelet poor plasma as a diluent, where necessary. […] Platelet aggregation was measured using an aggregometer (PAP-8E C/N 106075; Bio/Data Corp, Horsham PA). For M1 a range of concentrations was tested to produce a single fitted curve, and the Levenberg-Marquardt approach was used to calculate IC50 values."}, "[2]": {"conditions": "geometric mean, n=8, single SC 9.5 mg"}, "[3]": {"conditions": "sc, 9.5 mg, geometric mean, n=8, single SC 9.5 mg"}, "[4]": {"conditions": "sc, 9.5 mg, mean, n=8, single SC 9.5 mg"}, "[5]": {"conditions": "sc, 9.5 mg, median, n=8, single SC 9.5 mg"}}, "note": "Like-named read-outs stand apart in the source and are kept apart here."}
{"molecule": "NCC(=O)Nc1cncc(-c2nn3c(=O)cc(N4CCNCC4)nc3s2)c1", "note": "[Zalunfiban, 2-amino-N-{5-[5-oxo-7-(piperazin-1-yl)-5H-[1,3,4]thia-diazolo[3,2-a]pyrimidin-2-yl]pyridin-3-yl}acetamide]", "values": [{"measurement": "Time of last measurable whole blood zalunfiban concentration", "setting": "[1]; all participants", "value": "≤ 4", "unit": "h"}, {"measurement": "CL/F, whole blood zalunfiban", "setting": "[1]; [2]", "value": 80.7, "unit": "L/h"}, {"measurement": "tlast, whole blood zalunfiban", "setting": "[1]; [2]", "value": 3.4, "unit": "h"}, {"measurement": "Cmax", "setting": "[1]; [3]", "value": 94.6, "unit": "ng/mL"}, {"measurement": "Tmax", "setting": "[1]; [3]", "value": 15, "unit": "min"}, {"measurement": "AUC(0-inf)", "setting": "[1]; [3]", "value": 116, "unit": "ng·h/mL"}, {"measurement": "AUC(0-t)", "setting": "[1]; [3]", "value": 107, "unit": "ng·h/mL"}, {"measurement": "k el", "setting": "[1]; [3]", "value": 0.00021, "unit": "s⁻¹"}, {"measurement": "Vd/F", "setting": "[1]; [3]", "value": 107, "unit": "L"}, {"measurement": "half-life", "setting": "[1]; [3]", "value": 55.2, "unit": "min"}, {"measurement": "half-life", "setting": "[1]; sc, 9.5 mg, mean terminal half-life, n=8, single SC 9.5 mg", "value": "~60", "unit": "min"}, {"measurement": "Tmax", "setting": "[1]; [4]", "value": 15.6, "unit": "min"}, {"measurement": "Cmax", "setting": "[1]; sc, 9.5 mg, mean, n=8, single SC 9.5 mg ^14C-zalunfiban", "value": 95.2, "unit": "ng/mL"}, {"measurement": "AUC(0-inf)", "setting": "[1]; [4]", "value": 118, "unit": "ng·h/mL"}, {"measurement": "AUC(0-t)", "setting": "[1]; [4]", "value": 109, "unit": "ng·h/mL"}, {"measurement": "k el", "setting": "[1]; [4]", "value": 0.000218, "unit": "s⁻¹"}, {"measurement": "Vd/F", "setting": "[1]; [4]", "value": 114, "unit": "L"}, {"measurement": "Cmax", "setting": "[1]; [5]", "value": 96.9, "unit": "ng/mL"}, {"measurement": "Tmax", "setting": "[1]; [5]", "value": "~15", "unit": "min"}, {"measurement": "AUC(0-inf)", "setting": "[1]; [5]", "value": 123, "unit": "ng·h/mL"}, {"measurement": "AUC(0-t)", "setting": "[1]; [5]", "value": 114, "unit": "ng·h/mL"}, {"measurement": "k el", "setting": "[1]; [5]", "value": 0.000229, "unit": "s⁻¹"}, {"measurement": "half-life", "setting": "[1]; [5]", "value": 50.4, "unit": "min"}, {"measurement": "Tmax", "setting": "[1]; subcutaneous, 9.5 mg, median", "value": 15, "unit": "min"}, {"measurement": "Vd/F", "setting": "[1]; median, n=8, single SC 9.5 mg", "value": 96.6, "unit": "L"}, {"measurement": "CL/F, whole blood zalunfiban", "setting": "[1]; mean, n=8, single SC 9.5 mg", "value": 81.8, "unit": "L/h"}, {"measurement": "tlast, whole blood zalunfiban", "setting": "[1]; mean, n=8, single SC 9.5 mg", "value": 3.4, "unit": "h"}, {"measurement": "CL/F, whole blood zalunfiban", "setting": "[1]; median, n=8, single SC 9.5 mg", "value": 76.3, "unit": "L/h"}, {"measurement": "tlast, whole blood zalunfiban", "setting": "[1]; median, n=8, single SC 9.5 mg", "value": 3.5, "unit": "h"}, {"measurement": "IC50", "setting": "platelet aggregation", "value": 112, "unit": "nM"}]}
